This test has as its target T1, human TLR7 (Homo sapiens, UniProt Q9NYK1).
T1 sequence (Q9NYK1 27-1049): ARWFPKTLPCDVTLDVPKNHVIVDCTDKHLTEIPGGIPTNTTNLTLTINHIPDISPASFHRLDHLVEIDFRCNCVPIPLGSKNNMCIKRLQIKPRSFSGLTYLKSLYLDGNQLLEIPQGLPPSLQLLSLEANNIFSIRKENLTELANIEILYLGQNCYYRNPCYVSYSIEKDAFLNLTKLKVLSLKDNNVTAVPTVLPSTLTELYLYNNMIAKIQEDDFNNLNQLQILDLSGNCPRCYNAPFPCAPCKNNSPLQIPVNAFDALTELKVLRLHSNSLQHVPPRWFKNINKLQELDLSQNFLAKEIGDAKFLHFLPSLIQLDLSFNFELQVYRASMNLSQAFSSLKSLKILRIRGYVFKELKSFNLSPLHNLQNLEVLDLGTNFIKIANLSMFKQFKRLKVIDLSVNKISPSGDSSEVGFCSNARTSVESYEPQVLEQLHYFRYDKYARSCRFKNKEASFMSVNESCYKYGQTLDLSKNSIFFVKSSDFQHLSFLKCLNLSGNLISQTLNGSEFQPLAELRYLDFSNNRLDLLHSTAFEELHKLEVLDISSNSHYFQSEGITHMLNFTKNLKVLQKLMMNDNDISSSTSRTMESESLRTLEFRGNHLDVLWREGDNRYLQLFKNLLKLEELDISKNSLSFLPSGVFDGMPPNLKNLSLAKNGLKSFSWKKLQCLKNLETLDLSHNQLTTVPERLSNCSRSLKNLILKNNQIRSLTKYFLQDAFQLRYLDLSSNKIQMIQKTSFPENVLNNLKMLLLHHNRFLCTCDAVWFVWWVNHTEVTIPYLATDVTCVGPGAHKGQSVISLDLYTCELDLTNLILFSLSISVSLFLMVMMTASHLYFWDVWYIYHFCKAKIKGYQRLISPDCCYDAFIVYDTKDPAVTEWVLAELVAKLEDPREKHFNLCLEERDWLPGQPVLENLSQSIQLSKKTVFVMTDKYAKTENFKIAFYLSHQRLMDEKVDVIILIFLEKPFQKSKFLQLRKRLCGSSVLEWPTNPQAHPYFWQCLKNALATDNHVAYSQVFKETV
The experiment in a line: HEK293-Blue-hTLR-7 cells assay. The settings on record: HEK293-Blue-hTLR7 cells, SEAP reporter, R848 stimulation, 20 hrs. Type of test: cell-based. An excerpt:
HEK293-Blue-hTLR-7 Cells Assay:
A stable HEK293-Blue-hTLR-7 cell line was purchased from InvivoGen (Cat. #: hkb-htlr7, San Diego, Calif., USA). These cells were originally designed for studying the stimulation of human TLR7 by monitoring the activation of NF-κB. A SEAP (secreted embryonic alkaline phosphatase) reporter gene was placed under the control of the IFN-β minimal promoter fused to five NF-κB and AP-1-binding sites. The SEAP was induced by activating NF-κB and AP-1 via stimulating HEK-Blue hTLR7 cells with TLR7 ligands. Therefore the reporter expression was declined by TLR7 antagonist under the stimulation of a ligand, such as R848 (Resiquimod), for incubation of 20 hrs. The cell culture supernatant SEAP reporter activity was determined using QUANTI-Blue™ kit (Cat. #: rep-qb1, Invivogen, San Diego, Ca, USA) at a wavelength of 640 nm, a detection medium that turns purple or blue in the presence of alkaline phosphatase.
HEK293-Blue-hTLR7 cells were incubated at a density of 250,000˜450,000 cells/mL in a volume of 170 μL in a 96-well plate in Dulbecco's Modified Eagle's medium (DMEM) containing 4.5 g/L glucose, 50 U/mL penicillin, […], […], 2 mM L-glutamine, 10% (v/v) heat-inactivated fetal bovine serum with addition of 20 sL test compound in a serial dilution in the presence of final DMSO at 1% and 10 μL of 20 uM R848 in above DMEM, perform incubation under 37° C. in a CO2 incubator for 20 hrs. Then 20 μL of the supernatant from each well was incubated with 180 sL Quanti-blue substrate solution at 37° C. for 2 hrs and the absorbance was read at 620-655 nm using a spectrophotometer. The signalling pathway that TLR7 activation leads to downstream NF-κB activation has been widely accepted, and therefore similar reporter assay was modified for evaluating TLR7 antagonist.

Turning to `CN1CCC(NC(=O)C2CN(c3ccc(C#N)c4ncccc34)CC2C(F)(F)F)CC1` (centres unmarked) [Example 18, 1-(8-Cyano-5-quinolyl)-N-(1-methyl-4-piperidyl)-4-(trifluoromethyl)pyrrolidine-3-carboxamide], the IC50 (in general, the concentration that inhibits the measured activity by half) was 0.023 µM.
In turn, `CN1CCC(NC(=O)[C@@H]2CN(c3ccc(C#N)c4ncccc34)C[C@H]2C(F)F)CC1` (relative stereo) [Example 40, Trans-1-(8-cyano-5-quinolyl)-4-(difluoromethyl)-N-(1-methyl-4-piperidyl)pyrrolidine-3-carboxamide] returned an IC50 of 0.079 µM.
Compound `N[C@H]1CC[C@H](NC(=O)C2CN(c3ccc(C(F)(F)F)c4nccnc34)CC23CC3)CC1` (some centres unmarked) [Example 24, N-(4-aminocyclohexyl)-5-[8-(trifluoromethyl)quinoxalin-5-yl]-5-azaspiro[2.4]heptane-7-carboxamide] registered an IC50 of 0.029 µM.
`CN1CCC(NC(=O)C2CN(c3ccc(C(F)(F)F)c4nccnc34)CC23CC3)CC1` (centres unmarked) [Example 11, N-(1-methyl-4-piperidyl)-5-[8-(trifluoromethyl)quinoxalin-5-yl]-5-azaspiro[2.4]heptane-7-carboxamide] registered an IC50 of 0.013 µM.
As for `CN1CCC(NC(=O)[C@H]2CN(c3ccc(C(F)(F)F)c4nccnc34)C[C@@H]2C(F)(F)F)CC1` [Example 2, (3R,4R)—N-(1-methyl-4-piperidyl)-4-(trifluoromethyl)-1-[8-(trifluoromethyl)quinoxalin-5-yl]pyrrolidine-3-carboxamide], the IC50 came to 0.004 µM.
`CN1CCC(NC(=O)[C@H]2CN(c3ccc(C#N)c4nccnc34)C[C@@H]2C(F)(F)F)CC1` [Example 1, (3R,4R)-1-(8-cyanoquinoxalin-5-yl)-N-(1-methyl-4-piperidyl)-4-(trifluoromethyl) pyrrolidine-3-carboxamide] displayed an IC50 of 0.003 µM.
With `N#Cc1ccc(N2CC(C(=O)NCC3CNCCO3)C3(CC3)C2)c2nccnc12` (centres unmarked) [Example 13, 5-(8-Cyanoquinoxalin-5-yl)-N-(morpholin-2-ylmethyl)-5-azaspiro[2.4]heptane-7-carboxamide] the figure was 0.018 µM; with `C[C@@H]1CN(c2ccc(C#N)c3ncccc23)C[C@H]1C(=O)NC1CCN(C)CC1` (relative stereo) [Example 28], 0.039 µM.
In the case of `O=C(NC1C2CCCC1CNC2)C1CN(c2ccc(C(F)(F)F)c3nccnc23)CC12CC2` (centres unmarked) [Example 8, N-(3-azabicyclo[3.3.1]nonan-9-yl)-5-[8-(trifluoromethyl)quinoxalin-5-yl]-5-azaspiro[2.4]heptane-7-carboxamide], half-maximal inhibition (IC50) required 0.01 µM.
As to `N#Cc1ccc(N2CC(C(=O)NC3CCCNCC3)C(C(F)(F)F)C2)c2cccnc12` (single isomer, unassigned) [Example 30A, N-(azepan-4-yl)-1-(8-cyano-5-quinolyl)-4-(trifluoromethyl)pyrrolidine-3-carboxamide], the half-maximal inhibitory concentration (IC50) turned out to be 0.041 µM.
For the compound `CN1CCC(NC(=O)C2CN(c3ccc(C#N)c4nccnc34)CC23CC3)CC1` (single isomer, unassigned) [Example 7B, 5-(8-Cyanoquinoxalin-5-yl)-N-(1-methyl-4-piperidyl)-5-azaspiro[2.4]heptane-7-carboxamide], the IC50 stood at 0.006 µM.
The compound `NC1CC(CNC(=O)C2CN(c3ccc(C(F)(F)F)c4nccnc34)CC23CC3)C1` (centres unmarked) [Example 31, N-[(3-aminocyclobutyl)methyl]-5-[8-(trifluoromethyl)quinoxalin-5-yl]-5-azaspiro[2.4]heptane-7-carboxamide] came in with an IC50 of 0.041 µM.
Compound `C[C@H]1CN(c2ccc(C#N)n3nccc23)C[C@@H]1C(=O)NC1CCN(C)CC1` [Example 44, (3R,4R)-1-(7-cyanopyrazolo[1,5-a]pyridin-4-yl)-4-methyl-N-(1-methyl-4 piperidyl)pyrrolidine-3-carboxamide] had a half-inhibitory concentration (IC50) of 0.084 µM.
As to `C[C@@H]1CN(c2ccc(C#N)c3ncccc23)C[C@H]1C(=O)NC1CCCNCC1` (single isomer, unassigned) [Example 52B, Trans-N-(azepan-4-yl)-1-(8-cyano-5-quinolyl)-4-methyl-pyrrolidine-3-carboxamide], inhibition was half-maximal at 0.219 µM (IC50).

The values are drawn from patent US20210323977A1, “PYRROLIDINYL AMIDE COMPOUNDS FOR THE TREATMENT OF AUTOIMMUNE DISEASE” (Hoffmann-La Roche Inc., priority 2018, published 2021).
